Experimental data: US10681909B2, “Herbicidal triazoles” (FMC Corporation, priority 2014, dated 2020)

What was measured:
velvetleaf = experiment: Test A preemergence; type: in vivo, Abutilon theophrasti; details: Abutilon theophrasti, pre-emergence, 240 h, 0 to 100 scale (0 no effect, 100 complete control), read-out: Plant response rating, Velvetleaf; for pest or weed control at 125 g/ha: 125 g ai/ha; for pest or weed control at 500 g/ha: 500 g ai/ha, approx. 10 d
Method in brief: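 Loam/sand soil mix; compound in non-phytotoxic solvent + surfactant. Pre: directed soil spray right after planting seed. Post: potted plants 2–10 cm, 1–2 leaf stage, sprayed with same formulation.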

wheat, winter = experiment: Test D postemergence; type: in vivo, Triticum aestivum; details: scale 0 to 100
Text: (§1) Seeds of plant species selected from bluegrass (annual bluegrass, Poa annua), blackgrass (Alopecurus myosuroides), canarygrass (Phalaris minor), chickweed (common chickweed, Stellaria media), galium (catchweed bedstraw, Galium aparine), bromegrass, down (downy bromegrass, Bromus tectorum), Russian thistle (Salsola kali), field poppy (Papaver rhoeas), field violet (Viola arvensis), foxtail, green (green foxtail, Setaria viridis), deadnettle (henbit deadnettle, Lamium amplexicaule), ryegrass, Ital. (Italian ryegrass, Lolium multiflorum), kochia (Kochia scoparia), lambsquarters (Chenopodium album), oilseed rape (Brassica napus), pigweed (Amaranthus retroflexus), chamomile (scentless chamomile, Matricaria inodora), speedwell (bird's-eye speedwell, Veronica persica), barley, spring (spring barley, Hordeum vulgare), wheat, spring (spring wheat, Triticum aestivum), buckwheat, wild (wild buckwheat, Polygonum convolvulus), wild mustard (Sinapis arvensis), oat, wild (wild oat, Avena fatua), radish, wild (wild radish, Raphanus raphanistrum), […]), barley, winter (winter barley, Hordeum vulgare), and wheat, winter (winter wheat, Triticum aestivum) were planted into a silt loam soil and treated preemergence with test chemicals formulated in a non-phytotoxic solvent mixture which included a surfactant. At the same time, these species were planted in pots containing Sunshine Redi-Earth® planting medium comprising spaghnum peat moss, vermiculite, starter nutrients and dolomitic limestone and treated with postemergence applications of the test chemicals formulated in the same manner. Plants ranged in height from 2 to 18 cm (1- to 4-leaf stage). Treated plants and controls were maintained in a controlled growth environment for 14 to 21 d after which time all species were compared to controls and visually evaluated. […] A dash (-) response means no test result.

wheat, spring = experiment: Test D postemergence; type: in vivo, Triticum aestivum; details: scale 0 to 100
Text: as §1

chamomile = experiment: Test D postemergence; type: in vivo, Matricaria inodora; details: scale 0 to 100
Text: as §1

oilseed rape = experiment: Test C preemergence; type: in vivo, Brassica napus; details: for Plant response rating (scale of 0 to 100 where 0 is no effect and 100 is complete control): Oilseed Rape, preemergence; for Oilseed Rape plant response rating (0 to 100): Preemergence, visual rating after 13 to 15 d
Text: Seeds of plant species selected from blackgrass (Alopecurus myosuroides), ryegrass, Italian (Italian ryegrass, Lolium multiflorum), wheat (winter wheat, Triticum aestivum), galium (catchweed bedstraw, Galium aparine), corn (Zea mays), crabgrass, large (large crabgrass, Digitaria sanguinalis), foxtail, giant, (giant foxtail, Setaria faberii), johnsongrass (Sorghum halepense), lambsquarters (Chenopodium album), morningglory (Ipomoea coccinea), nutsedge, yellow (yellow nutsedge, Cyperus esculentus), pigweed (Amaranthus retroflexus), ragweed (common ragweed, Ambrosia elatior), soybean (Glycine max), barnyardgrass (Echinochloa crus-galli), oilseed rape (Brassica napus), waterhemp (common waterhemp, Amaranthus rudis), and velvetleaf (Abutilon theophrasti) were planted into a blend of loam soil and sand and treated preemergence with test chemicals formulated in a non-phytotoxic solvent mixture which included a surfactant. At the same time, plants selected from these crop and weed species and also chickweed (common chickweed, Stellaria media), oat, wild (wild oat, Avena fatua), and kochia (Kochia scoparia), were planted in pots containing Sunshine Redi-Earth® planting medium comprising spaghnum peat moss, vermiculite, starter nutrients and dolomitic limestone and treated with postemergence applications of test chemicals formulated in the same manner. Plants ranged in height from 2 to 18 cm (1- to 4-leaf stage) for postemergence treatments. […] A dash (-) response means no test result.

buckwheat, wild = experiment: Test D postemergence; type: in vivo, Polygonum convolvulus; details: scale 0 to 100
Text: as §1

blackgrass = experiment: Test D postemergence; type: in vivo, Alopecurus myosuroides; details: scale 0 to 100
Text: as §1

lambsquarters = experiment: Test D preemergence; type: in vivo, Chenopodium album; details: scale 0 to 100
Text: as §1

bromegrass, down [1] = experiment: Test D preemergence; type: in vivo, Bromus tectorum; details: scale 0 to 100
Text: as §1

galium = experiment: Test D preemergence; type: in vivo, Galium aparine; details: scale 0 to 100
Text: as §1

bromegrass, down [2] = experiment: Test D postemergence; type: in vivo, Bromus tectorum; details: scale 0 to 100
Text: as §1

canarygrass = experiment: Test D postemergence; type: in vivo, Phalaris minor; details: scale 0 to 100
Text: as §1

bluegrass = experiment: Test D preemergence; type: in vivo, Poa annua; details: scale 0 to 100
Text: as §1

CCc1nc(-c2ccc(C(F)(F)F)cc2)nn1Cc1ccnc(C(F)(F)F)c1 [Compound 1, 4-[[5-ethyl-3-[4-(trifluoromethyl)phenyl]-1H-1,2,4-triazol-1-yl]methyl]-2-(trifluoromethyl)pyridine]
pest or weed control at 125 g/ha (velvetleaf): 30% | pest or weed control at 500 g/ha (velvetleaf): 100% | Plant response rating: Wheat, Winter (wheat, winter; 31 g ai/ha): 15 | Plant response rating: Wheat, Winter (wheat, winter; 62 g ai/ha): 15 | Plant response rating: Wheat, Winter (wheat, winter; 125 g ai/ha): 25 | Plant response rating: Wheat, Winter (wheat, winter; 250 g ai/ha): 35 | Plant response rating: Wheat, Spring (wheat, spring; 31 g ai/ha): 20 | Plant response rating: Wheat, Spring (wheat, spring; 62 g ai/ha): 25 | Plant response rating: Wheat, Spring (wheat, spring; 125 g ai/ha): 35 | Plant response rating: Wheat, Spring (wheat, spring; 250 g ai/ha): 45 | Plant response rating: Chamomile (chamomile; 31 g ai/ha): 25 | Plant response rating: Chamomile (chamomile; 62 g ai/ha): 35 | Plant response rating: Chamomile (chamomile; 125 g ai/ha): 55 | Plant response rating: Chamomile (chamomile; 250 g ai/ha): 65 | Plant response rating (scale of 0 to 100 where 0 is no effect and 100 is complete control) (oilseed rape; 125 g ai/ha): 100 | Plant response rating (scale of 0 to 100 where 0 is no effect and 100 is complete control) (oilseed rape; 250 g ai/ha): 100 | Oilseed Rape plant response rating (0 to 100) (oilseed rape; 31 g ai/ha): 25 | Oilseed Rape plant response rating (0 to 100) (oilseed rape; 62 g ai/ha): 90 | Plant response rating: Buckwheat, Wild (buckwheat, wild; 31 g ai/ha): 60 | Plant response rating: Buckwheat, Wild (buckwheat, wild; 62 g ai/ha): 80 | Plant response rating: Buckwheat, Wild (buckwheat, wild; 125 g ai/ha): 100 | Plant response rating: Buckwheat, Wild (buckwheat, wild; 250 g ai/ha): 100 | Plant response rating: Blackgrass (blackgrass; 31 g ai/ha): 10 | Plant response rating: Blackgrass (blackgrass; 62 g ai/ha): 20 | Plant response rating: Blackgrass (blackgrass; 125 g ai/ha): 30 | Plant response rating: Blackgrass (blackgrass; 250 g ai/ha): 45 | Plant response rating: Lambsquarters (lambsquarters; 62 g ai/ha): 100 | Plant response rating: Lambsquarters (lambsquarters; 125 g ai/ha): 100 | Plant response rating: Lambsquarters (lambsquarters; 250 g ai/ha): 100 | Plant response rating: Bromegrass, Down (bromegrass, down [1]; 31 g ai/ha): 0 | Plant response rating: Bromegrass, Down (bromegrass, down [1]; 62 g ai/ha): 0 | Plant response rating: Bromegrass, Down (bromegrass, down [1]; 125 g ai/ha): 10 | Plant response rating: Bromegrass, Down (bromegrass, down [1]; 250 g ai/ha): 10 | Plant response rating: Galium (galium; 125 g ai/ha): 60 | Plant response rating: Galium (galium; 250 g ai/ha): 100 | Plant response rating: Bromegrass, Down (bromegrass, down [2]; 31 g ai/ha): 15 | Plant response rating: Bromegrass, Down (bromegrass, down [2]; 62 g ai/ha): 20 | Plant response rating: Bromegrass, Down (bromegrass, down [2]; 125 g ai/ha): 25 | Plant response rating: Bromegrass, Down (bromegrass, down [2]; 250 g ai/ha): 35 | Plant response rating: Canarygrass (canarygrass; 31 g ai/ha): 15 | Plant response rating: Canarygrass (canarygrass; 62 g ai/ha): 20 | Plant response rating: Canarygrass (canarygrass; 125 g ai/ha): 35 | Plant response rating: Canarygrass (canarygrass; 250 g ai/ha): 65 | Plant response rating: Bluegrass (bluegrass; 31 g ai/ha): 10 | Plant response rating: Bluegrass (bluegrass; 62 g ai/ha): 35 | Plant response rating: Bluegrass (bluegrass; 125 g ai/ha): 60 | Plant response rating: Bluegrass (bluegrass; 250 g ai/ha): 100

Cn1nc(-c2ccc(F)cc2)nc1Oc1cccc(C(F)(F)F)c1 [Compound 5, 3-(4-fluorophenyl)-1-methyl-5-[3-(trifluoromethyl)phenoxy]-1H-1,2,4-triazole]
pest or weed control at 125 g/ha (velvetleaf): 0% | pest or weed control at 500 g/ha (velvetleaf): 0%

CCCc1nc(-c2ccc(F)cc2)nn1Cc1ccnc(C(F)(F)F)c1 [Compound 6, 4-[[3-(4-fluorophenyl)-5-propyl-1H-1,2,4-triazol-1-yl]methyl]-2-(trifluoromethyl)pyridine]
pest or weed control at 125 g/ha (velvetleaf): 40% | pest or weed control at 500 g/ha (velvetleaf): 100% | Plant response rating (scale of 0 to 100 where 0 is no effect and 100 is complete control) (oilseed rape; 125 g ai/ha): 100 | Plant response rating (scale of 0 to 100 where 0 is no effect and 100 is complete control) (oilseed rape; 250 g ai/ha): 100 | Oilseed Rape plant response rating (0 to 100) (oilseed rape; 31 g ai/ha): 70 | Oilseed Rape plant response rating (0 to 100) (oilseed rape; 62 g ai/ha): 100

COc1nc(-c2ccc(F)cc2)nn1Cc1ccnc(C(F)(F)F)c1 [Compound 9, 4-[[3-(4-fluorophenyl)-5-methoxy-1H-1,2,4-triazol-1-yl]methyl]-2-(trifluoromethyl)pyridine]
pest or weed control at 125 g/ha (velvetleaf): 0% | pest or weed control at 500 g/ha (velvetleaf): 80% | Plant response rating (scale of 0 to 100 where 0 is no effect and 100 is complete control) (oilseed rape; 125 g ai/ha): 95 | Plant response rating (scale of 0 to 100 where 0 is no effect and 100 is complete control) (oilseed rape; 250 g ai/ha): 100 | Oilseed Rape plant response rating (0 to 100) (oilseed rape; 31 g ai/ha): 0 | Oilseed Rape plant response rating (0 to 100) (oilseed rape; 62 g ai/ha): 60

Cn1nc(-c2ccc(F)cc2)nc1C(O)c1ccnc(C(F)(F)F)c1 (stereo not drawn) [Compound 14, α-[3-(4-fluorophenyl)-1-methyl-1H-1,2,4-triazol-5-yl]-2-(trifluoromethyl)-4-pyridinemethanol]
pest or weed control at 125 g/ha (velvetleaf): 0% | pest or weed control at 500 g/ha (velvetleaf): 0%

CCn1nc(-c2ccc(F)cc2)nc1C(O)c1ccnc(C(F)(F)F)c1 (stereo not drawn) [Compound 15, α-[1-Ethyl-3-(4-fluorophenyl)-1H-1,2,4-triazol-5-yl]-2-(trifluoromethyl)-4-pyridinemethanol]
pest or weed control at 125 g/ha (velvetleaf): 0% | pest or weed control at 500 g/ha (velvetleaf): 0%

CCCn1nc(-c2ccc(F)cc2)nc1Cc1ccnc(C(F)(F)F)c1 [Compound 17, 4-[[3-(4-fluorophenyl)-1-propyl-1H-1,2,4-triazol-5-yl]methyl]-2-(trifluoromethyl)pyridine]
pest or weed control at 125 g/ha (velvetleaf): 90% | pest or weed control at 500 g/ha (velvetleaf): 100%

CCn1nc(-c2ccc(F)cc2)nc1C(=O)c1ccnc(C(F)(F)F)c1 [Compound 19, [1-ethyl-3-(4-fluorophenyl)-1H-1,2,4-triazol-5-yl][2-(trifluoromethyl)-4-pyridinyl]methanone]
pest or weed control at 125 g/ha (velvetleaf): 0% | pest or weed control at 500 g/ha (velvetleaf): 0%

CS(=O)(=O)c1nc(-c2ccc(F)cc2)nn1Cc1ccnc(C(F)(F)F)c1 [Compound 29, 4-[[3-(4-fluorophenyl)-5-(methylsulfonyl)-1H-1,2,4-triazole-1-yl]methyl]-2-(trifluoromethyl)pyridine]
pest or weed control at 125 g/ha (velvetleaf): 0% | pest or weed control at 500 g/ha (velvetleaf): 0%

COc1nc(-c2ccccc2)nn1Cc1ccnc(C(F)(F)F)c1 [Compound 32]
Plant response rating (scale of 0 to 100 where 0 is no effect and 100 is complete control) (oilseed rape; 125 g ai/ha): 10 | Plant response rating (scale of 0 to 100 where 0 is no effect and 100 is complete control) (oilseed rape; 250 g ai/ha): 85 | Oilseed Rape plant response rating (0 to 100) (oilseed rape; 31 g ai/ha): 5 | Oilseed Rape plant response rating (0 to 100) (oilseed rape; 62 g ai/ha): 20
